Assays:
PBMC = assay: MTT cell viability assay; format: cell-based; details: Homo sapiens, 72 h, 10%FBS growth media
Protocol: Straightforward, the tetrazolium salt 3-(4,5-methyltiazol-2yl-)-2,5diphenyl-tetrazolium bromide (MTT) (Applichen, Darmstadt, Germany) was added to cells, incubated for 2–4 h at 37 °C, and lysed in 10% SDS.

[1] = test system: glucocorticoid receptor (GR)-dependent transcriptional activity, MDA-kb2 cells; assay: GR-mediated transcription, luciferase reporter in MDA-kb2 cells (dexamethasone); details: 100 nM Dexamethasone; compounds 1–10 µM
[2] = test system: androgen receptor (AR)-dependent transcriptional activity, MDA-kb2 cells; assay: AR-mediated transcription, luciferase reporter in MDA-kb2 cells (testosterone); details: 100 nM Testosterone; compounds 1–10 µM
[3] = test system: STAT5 transcriptional activity in Ba/F3 cells; assay: IL3-stimulated STAT5 transcriptional activity, Renilla reporter Ba/F3 cells; details: 4 h pretreatment, mIL3 30 ng/ml 16 h
T47D cells [4] = assay: Real-time monitoring of 2D cell growth (IncuCyte); format: cell-based; details: Homo sapiens, 120 h, complete estrogenic media (10%FBS), 5 days, AUC
[5] = target: T1, native ERα from rat uterine cytosol (Rattus norvegicus, UniProt P06211); assay: Radiolabeled E2 competitor binding assay in rat uterine cytosol (RUC)
T1 construct: from tissue; host or cells: uterine cytosol of ovariectomized Sprague-Dawley rats
Protocol: Animal studies were approved by the Bioethics Committee of the University of Las Palmas de Gran Canaria (OEBA-ULPGC 40/2020), and the experiments were carried out according to OECD guidelines (ER-RVC OPPTS 890.1250). ER was obtained from rat uterine cytosol (RUC). Briefly, RUC was extracted from 8–12 weeks old Sprague-Dawley rats 13–16 days after they were ovariectomized under ketamine (75 mg/kg)/medetomidine (1 mg/kg) anesthesia. Uteri were removed, trimmed free of adipose tissue, blotted, weighed and frozen on liquid nitrogen until RUC isolation. Then, 100 mg of uteri per ml of ice-cold TEGM buffer (10 mM Tris, 1.5 mM EDTA, 10% glycerol, 3 mM MgCl2, 1 mM PMSF, 1 mM DTT, pH 7.4) were homogenized by using a Polytron PT3000 homogenizer (Kinematica, Malters, Switzerland) at 15,000 rpm for 3 bursts of 30″ each. The homogenate was sedimented, and the supernatant was centrifuged at 105,000 g for 60 min at 4 °C to obtain RUC. Protein concentration was determined by Bradford´s assay (Bio-Rad, Irvine, CA, USA), and 2 mg/mL of RUC was taken from all samples [35]. […] Then, 200 μL of DCC suspension (0.8% charcoal: 0.08% dextran; w:w) in cold TE buffer was added to each tube and incubated for 10 min before DCC was centrifuged at 3000 g for 10 min at 4 °C. Supernatant (200 μL) was obtained to measure total and non-specific bound radioactivity in TRICARB 4810 LSC counter (PerkinElmer). […]

[6] = test system: STAT3 transcriptional activity in HEK293 cells; assay: IL6-induced STAT3 transcriptional activity, Renilla reporter HEK-293 cells; details: 4 h pretreatment, hIL6 10 ng/ml 16 h
[7] = test system: ERα-mediated transcription (3xERE-luciferase), T47D-KBluc cells; assay: ER-dependent transcriptional activity, 3xERE-luciferase reporter in T47D-KBluc cells; details: until dropping to 20% Emax
[8] = test system: polyubiquitinated protein level in T47D cells; assay: Immunoblotting; format: cell-based, human; details: from 24 h to 72 h
Protocol: Then, they were washed with ice-cold PBS supplemented with 1 mM ortovanadate and lysed with RIPA buffer containing protease and phosphatase inhibitors (Thermo Fisher Scientific, Waltham, MA, USA). Equal protein amounts were analyzed by SDS–PAGE, and transferred to nitrocellulose membranes (Thermo Fisher Scientific, Waltham, MA, USA), blocked with Tris-buffered saline/0.05% Tween 20 (TBS-T) containing 5% blotto (Merck, Darmstadt, Germany) or 5% BSA for total and phosphorylated proteins, respectively. Immunoblotting was carried out with mouse anti-ERα F-10 (Santa Cruz Biotech, Santa Cruz, CA, USA), rabbit total anti-STAT5 (Cell Signaling Technology, Leiden, The Netherlands) or mouse anti-polyubiquitin (EMD Millipore, Burlington, MA, USA). After washing, membranes were incubated with horseradish peroxidase-conjugated secondary antibodies (Bio-Rad) for 1 h at room temperature. The β-actin antibody (Santa Cruz Biotech, CA, USA) was used as the loading control. Finally, protein bands were visualized by using Clarity™ Western ECL Substrate (Bio-Rad) in the ChemiDoc XRS system (Bio-Rad) and were analyzed with Quantity One software (Bio-Rad).

T47D cells [9] = assay: Cell cycle analysis by flow cytometry; format: cell-based, human; details: 5 μM; 48h
Protocol: For cell cycle studies, unsynchronized T47D cells were seeded at 250,000 cells/well in RPMI (Biowest, Nuaillé, France) 10% FBS medium supplemented with L-glutamine (2 mM), HEPES (10 mM), sodium pyruvate (1 mM) and PEST. […] Cells were then washed in ice-cold PBS and fixed in cold 70% ethanol at −20 °C overnight. Then, the cell pellet was resuspended in FACs buffer (2 mM EDTA, 2% FBS in PBS) and incubated with Ki67-APC antibody (Miltenyi Biotec, Auburn, CA, USA) and DAPI (4′,6-diamidino-2-phenylindole; Sigma-Aldrich) for 20 min at room temperature. Finally, cells were washed and resuspended with FACs Buffer for cell cycle analyses. For apoptosis studies, an Annexin V-FITC Apoptosis Kit (Miltenyi Biotec) was used. Briefly, treated cells were collected in 100 μL of ice-cold AnnexinV binding buffer (10 mM HEPES pH 7.4, 140 mM NaCl, 2.5 mM CaCl2) containing 10 μL of Annexin-V FITC and incubated for 15 min at room temperature. After that, cells were washed with 1 mL binding buffer, sedimented at 300× g 10 min, and resuspended with 500 μL binding buffer containing 5 μL of propidium iodide (PI; 100 μg/mL) prior to acquisition in MACSQuant10 cytometer (Miltenyi Biotec) where 10,000 or 20,000 events were used for cell cycle and apoptosis analysis, respectively.

T1 sequence (P06211 whole entry): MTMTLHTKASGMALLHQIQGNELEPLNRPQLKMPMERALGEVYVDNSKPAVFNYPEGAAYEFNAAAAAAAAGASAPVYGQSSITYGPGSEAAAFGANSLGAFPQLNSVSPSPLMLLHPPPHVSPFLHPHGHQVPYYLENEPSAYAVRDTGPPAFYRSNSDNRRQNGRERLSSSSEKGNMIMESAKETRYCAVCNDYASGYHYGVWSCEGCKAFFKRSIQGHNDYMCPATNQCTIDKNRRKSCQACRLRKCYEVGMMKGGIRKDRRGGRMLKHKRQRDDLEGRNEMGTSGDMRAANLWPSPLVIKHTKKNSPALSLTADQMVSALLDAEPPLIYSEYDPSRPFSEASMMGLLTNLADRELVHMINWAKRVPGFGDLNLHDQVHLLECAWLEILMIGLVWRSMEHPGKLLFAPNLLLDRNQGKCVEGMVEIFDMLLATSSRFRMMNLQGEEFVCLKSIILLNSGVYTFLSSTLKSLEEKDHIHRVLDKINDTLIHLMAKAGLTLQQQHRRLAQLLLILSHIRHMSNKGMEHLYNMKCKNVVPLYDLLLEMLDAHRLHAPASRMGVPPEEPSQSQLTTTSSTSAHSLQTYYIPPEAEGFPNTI

| SMILES | IC50 (PBMC) [µM] | effect on DEX-induced luciferase activity [1] | effect on T-induced luciferase activity [2] | IC50, IL3-stimulated STAT5 transcriptional activity [3] | IC50 (T47D cells [4]) [µM] | IC50 [5] [µM] | IC50, IL6-induced STAT3 transcriptional activity [6] | effect on E2-induced luciferase activity [7] | effect on polyubiquitinated protein level [8] | G2/S/M cells (T47D cells [9]) [%] |
| --- | --- | --- | --- | --- | --- | --- | --- | --- | --- | --- |
| Cc1ccc(C2=CC(O)(c3ccccc3)N(Cc3ccccc3)C2=O)cc1C (stereo not drawn) [compound 32, 1-benzyl-3-(3,4-dimethylphenyl)-5-hydroxy-5-phenyl-1H-pyrrol-2(5H)-one] | > 30 | Neither 4-OHTAM nor compounds 32 or 35 displayed cross-activation | Neither 4-OHTAM nor compounds 32 or 35 displayed cross-activation | no activity | 5.34 ± 2.47 | 128.4 ± 1.25 |  |  |  |  |
| O=C1C(c2ccc([N+](=O)[O-])cc2)=CC(O)(c2ccccc2)N1Cc1ccccc1 (stereo not drawn) [compound 35, 1-benzyl-5-hydroxy-3-(4-nitrophenyl)-5-phenyl-1H-pyrrol-2(5H)-one] | 17.3 ± 6.48 | Neither 4-OHTAM nor compounds 32 or 35 displayed cross-activation | Neither 4-OHTAM nor compounds 32 or 35 displayed cross-activation |  | 6.98 ± 1.15 | 76.6 ± 1.3 | inactive | reduced E2-induced luciferase activity | significantly increased polyubiquitinated protein level | 16.52 |

Source: PMC9655618 (Cancers, 2022)
